Data published in PMC5656322, “BAK1 is involved in AtRALF1-induced inhibition of root cell expansion” (PLoS Genetics, 2017).
“And” between values parts separate entries of the source, which are not always exact repeats. Identical values can stand only once. Where no end group is shown, it is not given here.

B1: Recombinant His-tagged AtRALF1 (peptide, UniProt Q9SRY3 72-120, looked up)
chain: ATTKYISYQSLKRNSVPCSRRGASYYNCQNGAQANPYSRGCSKIARCRS
modifications: ends and bridges not checked; also: His-tagged
notes: Rapid alkalinization factor 1 (AtRALF1), Arabidopsis thaliana; the active peptide (49 residues by the label RALF1(9–49)), cloned in pET-28b at NdeI/HindIII; printed molecular weight 7,631 Da; The printed mass of 7,631 Da would fit the 49-residue peptide with the His tag of pET-28b still on it (surmise); also called recombinant AtRALF1; R1
B2: Recombinant His-tagged HA-BAK1-ECD (domain or fragment, Arabidopsis thaliana, UniProt Q94F62 26-225, looked up)
chain: NAEGDALSALKNSLADPNKVLQSWDATLVTPCTWFHVTCNSDNSVTRVDLGNANLSGQLVMQLGQLPNLQYLELYSNNITGTIPEQLGNLTELVSLDLYLNNLSGPIPSTLGRLKKLRFLRLNNNSLSGEIPRSLTAVLTLQVLDLSNNPLTGDIPVNGSFSLFTPISFANTKLTPLPASPPPPISPTPPSPAGSNRITG
notes: BRI1-associated receptor kinase 1 (BAK1), Arabidopsis thaliana; extracellular domain; printed molecular weight 25,654.04 Da; HA-BAK1-ECD amplified from the pGADT7 construct, moved to pDEST17; also called BAK1-ED; not shown: HA, N-terminal, kept

Columns and labels:
[1] = system: Arabidopsis seedlings, primary root; experiment: Root growth inhibition assay, liquid medium, 24-well plates; type: in vivo, Arabidopsis thaliana; conditions: 10 μM, 2 days
Method: (A) and (B) Arabidopsis seedlings (2 days old) were treated with 10 μM AtRALF1 or water (H20) for 2 days. The values are the mean ± SD of at least 25 seedlings. Triple asterisks indicate P < 0.01 (Student’s t test); ns, not significant. (C) Four-day-old seedlings were transferred to media containing different concentrations of AtRALF1, and the primary root length was measured after 8 days of treatment. The data represent the mean value ± SD of 30 seedlings. […] Representative Arabidopsis seedlings after 8 days of treatment with AtRALF1 are shown below. Seedlings were arranged on plates after the treatment for imaging. Scale bars, 1 cm. (D) Two-day-old seedlings were treated with 10 μM AtRALF1 or water for 2 days, and root cell length was measured after 2 days of treatment. Cells from the root endodermis in the differentiation zone were measured. The values are the mean ± SD of approximately 150 cells. Triple asterisks indicate P < 0.01 (Student’s t test); ns, not significant.
Aliquots of 1 ml of medium containing seeds were distributed into 24-well plates. The peptides (10 μM) were added after 2 days, and the root length was measured 2 days after treatment. To maximize root growth, the seeds were germinated in vertical plates. […] The root length was measured 8 days after treatment unless stated otherwise. Control plants were grown under identical conditions in a peptide-free medium. Quantitative data were obtained as previously described. The experiments were repeated at least 3 times using independent biological replicates with similar results. The data from one representative experiment are shown. For cell length measurements, AtRALF1 peptide (10 μM) was added after 2 days of germination, and the cell length was measured after 2 days of treatment. The cell wall was stained with a 1 mg ml^-1 propidium iodide solution (Sigma) in the dark for 15 min and washed twice with water. Cells of the endodermis of the root differentiation zone were imaged and measured using confocal microscopy (Olympus FV1000). Approximately 30 plants from each genetic background and at least 5 cells per root were measured. The wavelengths for excitation and emission were 555 and 655 nm, respectively. Image processing was completed using the Olympus FluoView software.
Arabidopsis seedlings (2-days-old) were treated with 10 μM AtRALF1 or water (H20) for 2 days. The values are the mean ± SD of at least 25 seedlings. Triple asterisks indicate P < 0.01 (Student’s t test); ns, not significant. (PDF) Click here for additional data file.
Supplementary file pgen.1007053.s002.pdf: S2 Fig Loss-of-function bak1 mutants are sensitive to the inhibitory activity of AtRALF23/34 on root growth. Arabidopsis seedlings (2-day-old) were treated with 10 μM RALF1(9–49), RALF1(I6A), AtRALF1, AtRALF23 and AtRALF34 or water (H20) for 2 days. The values are the mean ± SD of at least 20 seedlings. […] (PDF) Click here for additional data file.

HA-BAK1-ECD = experiment: Co-immunoprecipitation in vitro; type: binding, Arabidopsis thaliana; conditions: 100 nM each protein, pH 6.3, overnight 4 °C, agarose anti-HA beads
Method: The purified recombinant proteins AtRALF1 and HA-BAK1-ECD and the synthetic peptides RALF1(9–49) and RALF1(I6A) were combined in 200 μl of interaction buffer pH 6.3 (100 mM NaCl; 1 mM PMSF; 0.5%Triton X; 2.7 mM KCl; 8 mM NaH2PO4; 2 mM KH2PO4) overnight at 4 °C. A 100-nM concentration of each protein was used. This solution was incubated with agarose anti-HA beads (EZview Red Anti-HA Affinity Gel, Sigma) for 30 min at 4 °C to immunoprecipitate the proteins, washed 5 times with interaction buffer, eluted in 1X SDS sample buffer containing 10% β-mercaptoethanol and applied to an SDS-PAGE gel. The immunoprecipitated HA-BAK1-ECD and co-immunoprecipitated AtRALF1 were analyzed by protein blotting as described. The primary and secondary antibodies used to detect AtRALF1 were anti-AtRALF1 (1:10,000, Celula B, Immunology Laboratory, UFRGS, Brazil) and goat anti-rabbit HRP-conjugated secondary antibody (1: 10,000, BioRad), respectively.

BAK1-GFP = experiment: Co-immunoprecipitation with microsomal fraction of N. benthamiana leaves expressing BAK1-GFP; type: binding, Arabidopsis thaliana; conditions: 600 nM peptide, 1 h, 4 °C, anti-GFP antibody
Method: This assay was performed as previously described with some modifications. The BAK1 coding region was amplified from Arabidopsis genomic cDNA using standard PCR with the primers BAK1 Fw and BAK1 Rv (S1 Table). To generate the p35S-BAK1:GFP plasmid, the fragment was cloned into the pENTR D-TOPO vector and later transferred to the pk7FWG2 vector [56]. Leaves from N. benthamiana plants were agroinfiltrated with p19 vector alone and p19 co-expressed with p35S-BAK1:GFP, as previously described. After 3 days, leaves were homogenized in extraction buffer [300 mM sucrose, 100 mM Tris-HCl pH 7.5, 25 mM EDTA, 25 mM NaF, 1 mM Na2MoO4, 1 mM PMSF, 1 mM DTT and protease inhibitor cocktail (Roche), pH 6.2 adjusted] and centrifuged at 1,000 g for 10 min at 4°C, and the supernatant was then centrifuged at 100,000 g for 50 min at 4°C to precipitate the microsomal pellet. The pellet was resuspended in the extraction buffer plus 0.5% Triton-X and incubated with 600 nM recombinant AtRALF1 or 600 nM RALF1(I6A) for 1 h at 4°C. The complexes were incubated with anti-GFP antibody (Santa Cruz Biotechnology) and Sepharose Beads plus protein A (Life Technologies) overnight at 4°C. […] The AtRALF1/BAK1-GFP complex bound to the beads was eluted with denaturing in 10 μl of 1X loading buffer (NuPAGE LDS buffer) at 95°C for 8 min, then analyzed by SDS-PAGE. The proteins were detected as previously described.

[2] = system: plants overexpressing the AtRALF1 gene; conditions: plants overexpressing AtRALF1 treated with BL; ref [9]; cited from earlier work
Text: AtRALF1-overexpressing plants are less sensitive to exogenous brassinosteroids (BRs). […] The expansin A5 gene (AtEXPA5), which is involved in the regulation of cell ...

[3] = system: cytosolic Ca^2+ in Arabidopsis seedlings; conditions: BL; ref [38]; cited from earlier work
BAK1 = BAK1 phosphorylation assay, anti-phosphothreonine; type: in vivo, Arabidopsis thaliana; conditions: pBAK1:BAK1-HA roots, 20 min; AtRALF1 1, 2, 10 μM; BL 0.1 μM
Method: Transgenic plants pBAK1:BAK1-6xHA were grown in vertical plates for 10–15 days. The plants were treated with 0.1 μM BL, 2 μM RALF1(9–49), 1 μM, 2 μM or 10 μM AtRALF1 for 20 min. The roots were isolated, and the microsomal fractions were obtained as described above. The microsomal fractions were incubated with anti-HA beads (EZview Red Anti-HA Affinity Gel, Sigma) for 2 h at 4 °C to immunoprecipitate the BAK1 protein. The unbound materials were removed by washing 3 times. Proteins were separated by SDS/PAGE and further analyzed by protein blotting using anti-HA (Thermo Scientific), or anti-phosphothreonine (Novus Biologicals), or anti-phosphoserine (Novus Biologicals) antibodies.

[4] = system: Arabidopsis seedlings, primary root; experiment: Root growth inhibition assay, vertical plates; type: in vivo, Arabidopsis thaliana; conditions: bak1 mutants, 0 or 1 μM BL, 8 days
BAK1 gene = conditions: BL hormone treatment, Arabidopsis plants; ref [29]; cited from earlier work
Text: It has been previously shown through microarray experiments that the treatment of Arabidopsis plants with AtRALF1 causes BAK1 gene induction by approximately 1.56-fold. Our data are consistent with that previous observation and add a new gene to the list of AtRALF1-inducible genes. […] The fact that AtRALF1 peptide and BL treatment both induce BAK1 gene expression provides further evidence that BAK1 ...

[5] = system: AtPRP3, AtHRGP2, CPD and DWF4 genes; conditions: cited from earlier work
Text: AtRALF1-overexpressing plants are less sensitive to exogenous brassinosteroids (BRs). […] AtRALF1 also induces two cytochrome P450 monooxygenase genes related to the BR biosynthetic pathway: Constitutive Photomorphism and Dwarfism (CPD) and DWARF4 (DWF4). We exposed the bak1 mutants to the same concentration of AtRALF1 and evaluated the capacity to induce the AtPRP3, AtHRGP2, CPD and DWF4 genes. None of the AtRALF1-inducible genes were ...

fer4 mutant = conditions: ref [10]; cited from earlier work
Text: Isothermal titration calorimetry has been used to estimate Kd values for plant ligand-receptor kinase pairs, IDA/ HAESA and AtRALF23/FERONIA are among them and our Kd values are consistent with these reported values. […] Previous studies have shown the possibility of additional sites for AtRALF1 binding. In cell suspension cultures of tomato, tobacco and alfalfa, the ^125I-azido-RALF peptide cross-linked to two p ...

[6] = molecular target: B2; experiment: ITC; VP ITC; 0.7 mM BAK1-ECD in the syringe (28 injections of 10 μl) into 0.03 mM peptide in the 1.4 ml cell; 15 mM HEPES pH 6.8; 25 °C; three independent experiments; conditions: both partners purified
[7] = molecular target: B1; experiment: as above; conditions: both partners purified

Molecule: RALF1(I6A): inactive AtRALF1 peptide which has an Ile replaced by an Ala in the conserved YISY domain (ATTKYASYQSLKRNSVPCSRRGASYYNCQNGAQANPYSRGCSKIARCRS; ends and bridges not checked; cysteine pairing not given here; UniProt Q9SRY3 72-120, looked up, variant I6A)
- activity of negative control peptides on root growth [1]: inactive
- co-immunoprecipitation with HA-BAK1-ECD (HA-BAK1-ECD): did not co-immunoprecipitate with BAK1
- co-immunoprecipitation with BAK1-GFP (BAK1-GFP): did not co-immunoprecipitate with BAK1-GFP

Molecule: CC(C)[C@H](C)[C@@H](O)[C@H](O)[C@@H](C)[C@H]1CC[C@H]2[C@@H]3COC(=O)[C@H]4C[C@H](O)[C@H](O)C[C@]4(C)[C@H]3CC[C@]12C [BL, brassinolide, reference compound]
- hypocotyl elongation [2]: a minor increase in hypocotyl elongation
- number of lateral roots [2]: no change in the number of lateral roots
- root length [2]: no increase in root length
- mobilization of Ca^2+, dependence on BAK1 [3]: independent of BAK1
- BAK1 phosphorylation in threonine residues (BAK1): increase resulting from the treatment of the seedlings with BL
- sensitivity of root growth to BL [4]: Reduced sensitivity
- BAK1 gene induction (BAK1 gene): promotes BAK1 gene induction in Arabidopsis plants
- AtRALF23 gene expression ([5]; Arabidopsis seedlings, BL, ref [4],[19]): down-regulated
- CPD and DWF4 gene expression ([5]; BL treatment, ref [9]): down-regulated by BL treatment
- AtEXPA5 expression ([5]; roots of treated seedlings, ref [16]–[18]): induced by BL

Molecule: ^125I-labeled AtRALF1: AtRALF1 radiolabeled with ^125I, earlier study [10] (ATTKYISYQSLKRNSVPCSRRGASYYNCQNGAQANPYSRGCSKIARCRS; ends and bridges not checked; also: radiolabeled with 125I; UniProt Q9SRY3 72-120, looked up)
- reduction of specific binding of 125I-labeled AtRALF1 (fer4 mutant): approximately 40%

Molecule: B1
- Kd [6]: 4.6 µM and 4.9 µM and 5.8 µM

Molecule: B2
- stoichiometry N [7]: 1.5 and 0.5 and 1.27
